{"source": "patent US20250231157A1", "about": "“METHOD FOR DETERMINING THE PARTITION OF NAPHTHENIC ACIDS FROM A PRODUCTION WATER MIMICKING SYSTEM AND MIMICKING SYSTEM” (PETRÓLEO BRASILEIRO S.A. – PETROBRAS, priority 2023, published 2025)", "key": {"[1]": {"test": "Partition equilibrium under the influence of salinity (NaCl), glass reactor, neutralization titration", "format": "physicochemical", "protocol": "The variation in salinity (and its effect on acidic species) is due to the large variation in salinity found between the portions of bottom-hole water, middle-well water and surface water. Thus, systems with salinity (i.e., NaCl) between 3.5 and 30% (m·v^−1) were tested in a glass reactor, and neutralization titration was performed (in triplicate analysis), as previously described. Furthermore, the experimental results were generated in triplicate, using 99% NaCl (Sigma-Aldrich) with five acidic species."}, "[2]": {"test": "Partition equilibrium with addition of calcium and strontium salts to the aqueous phase", "format": "physicochemical", "details": "for Migration: salinity 3.5%", "protocol": "The addition of salts to the reaction system is of fundamental importance when one intends to mimic field conditions. In this sense, in addition to continuing the study of the salinity effect (Example 4), the insertion of salts containing Ca^2+ and Sr^2+ ions, known to be present in seawater, was tested. To this end, the projects were based on the literature (Zheng, J. et al. Offshore produced water management: A review of current practice and challenges in harsh/Arctic environments. Mar. Pol. Bul. 2016, 104, 7-19) and four concentrations of each of the two ions were evaluated (400.0, 1200.0, 2600.0 and 9000.0 mg·L^−1), maintaining salinity at 3.5% (m·v^−1).\nIn short, the experimental results were generated in triplicate, using 99% NaCl to add salinity to the aqueous fraction and PA calcium chloride and PA strontium chloride to add calcium and strontium, respectively.\nThe addition of calcium and strontium to the reaction system, in the form of salts, aims at mimicking the real scenario in which both species are present (regardless of the salinity of the medium), especially in the well condition. This study aimed at understanding the effect (on the migration of acids to the organic phase) of this ion in the system also at concentrations higher than 10 mM. Finally, the experiments (in triplicate) with divalent strontium ions followed the same rationale."}, "[3]": {"test": "Partition equilibrium in the presence of surfactants (TBA, CTA, TMA)", "format": "physicochemical", "text": "The presence of chemical compounds usually added in the chain of unit operations of oil extraction and production, such as demulsifiers and surfactants, can affect the partition equilibrium of species in this water/oil system. In order to understand the extent of this effect, as well as discern the relevance of the chemical structure on this effect, the following items were chosen: • Dissolvan 961 (Clariant), composed of oil hydrocarbons (CAS 918-811-1) and ethanol (CAS 64-17-5); • Dissolvan 974 (Clariant), composed of EO-PO block polymer poly adducts and Bisphenol-A-diglycidyl ether (CAS 68123-18-2) and ethanol (CAS 64-17-5); • Tetrabutylammonium chloride (CAS 1112-67-0), 97% purity; • Cetyltrimethylammonium chloride (CAS 112-02-7), 25% in water; and • Trimethylammonium chloride (CAS 593-81-7), 98% purity.\nFor this study, the experiments (in triplicate) used between 100.0 and 1000.0 mg·L^−1 of each compound, comparing the results with control tests (absence of the component), all with constant salinity at 3.5% (m·v^−1). Finally, neutralization titration with a standardized NaOH titrant solution was used to determine the effect on the partition equilibrium for four acidic species (the same as in the other examples, except for dicyclohexylacetic acid).\nConsidering the study with surfactants, the (individual) addition of three species to the control system was evaluated (tetrabutylammonium chloride (TBA), tetramethylammonium chloride (TMA) and cetyltrimethylammonium chloride (CTA)). For this purpose, the surfactants have distinct chemical structures, namely the size of the side chain, and their eventual effect on the partition equilibrium of the acidic species was evaluated."}, "[4]": {"test": "Partition equilibrium under the influence of salinity (NaCl), glass reactor, neutralization titration", "format": "physicochemical", "details": "Salinity 0 (%, m · m^−1) NaCl"}, "[5]": {"test": "Partition equilibrium in the presence of demulsifiers (Dissolvan 961, Dissolvan 974)"}, "[6]": {"test": "Partition equilibrium in reactor pressurized with CO2, in presence and absence of alkalinity (NaHCO3, Na2CO3), back titration", "description": "In the initial tests, 100 mL of heptol and 300 mL of water (with or without salinity) were used, with the addition of acidic species in the organic phase, in order to verify migration to the aqueous phase. As a rule, the system was kept under agitation at 500 rpm for 8 min, followed by rest for 10 min and, finally, collection of 50.0 mL aliquots of the aqueous phase for titrimetric analysis.\nA 316 stainless steel alloy reactor (Parr®) (capacity for 600 mL and operational up to 20 MPa pressure) was used. For this purpose, a temperature range between 25° C. and 80° C. and pressure between 0.1 MPa and 1.0 MPa were used, and the reactor was pressurized with CO2. Thus, the results were compared (in terms of migration of the acidic species (%, mol) by means of back titrations) and the influence of pressure and temperature on the partition was estimated, as well as possible synergistic effects with the sources of alkalinity added to the aqueous phase.\nPreviously, the back titration procedure was internalized and optimized (Example 1), ensuring that the reproducibility of the measurements was adequate (standard deviation values below 10%, for example) and that the recoveries were close to what was expected based on the purity of the reagents (i.e., close to or above 90%). […] Control experiments were performed (measuring the availability of the species in an aqueous medium, without using the reactor) by solubilizing the organic acid directly in the aqueous phase and titrating a 10.0 mL aliquot; the same way, experiments were performed in the reactor based on the standardization of heptol and salinity already discussed (3.5%)."}}, "data": [{"smiles": "CCCCC(=O)O", "note": "[Pentanoic Acid, pentanoic acid]", "values": [{"measurement": "Salting out effect (reduction in the number of moles contained in the aqueous phase)", "setting": "[1]; 30% (m·v^−1) NaCl versus tests without salinity", "result": "approximately 300%"}, {"measurement": "Migration", "setting": "[1]; Salinity 3.5 (%, m · m^−1) NaCl", "result": "73.3 %, mol"}, {"measurement": "Migration", "setting": "[1]; Salinity 18.0 (%, m · m^−1) NaCl", "result": "40.0 %, mol"}, {"measurement": "Migration", "setting": "[1]; Salinity 30.0 (%, m · m^−1) NaCl", "result": "23.3 %, mol"}, {"measurement": "Migration", "setting": "[2]; Absence of ions", "result": "77.0 %, mol"}, {"measurement": "Migration", "setting": "[2]; Calcium 400 mg · L^−1", "result": "90.0 %, mol"}, {"measurement": "Migration", "setting": "[2]; Calcium 400 mg · L^−1, listed as pentanoic acid", "result": "~100 %, mol"}, {"measurement": "Migration", "setting": "[2]; Calcium 1200 mg · L^−1", "result": "98.7 %, mol"}, {"measurement": "Migration", "setting": "[2]; Calcium 2600 mg · L^−1", "result": "96.7 %, mol"}, {"measurement": "Migration", "setting": "[2]; Strontium 400 mg · L^−1", "result": "100.0 %, mol"}, {"measurement": "Migration", "setting": "[2]; Strontium 1200 mg · L^−1", "result": "100.0 %, mol"}, {"measurement": "Migration", "setting": "[2]; Strontium 2600 mg · L^−1", "result": "100.0 %, mol"}, {"measurement": "Effect of strontium ions on migration to the aqueous phase", "setting": "[2]; strontium 400-2600 mg·L^−1", "result": "increase in migration"}, {"measurement": "Migration", "setting": "[3]; Absence of surfactant, salinity 3.5%", "result": "77.0 %, mol"}, {"measurement": "Migration", "setting": "[3]; CTA100 (cetyltrimethylammonium chloride 100 mg · L^−1)", "result": "76.0 %, mol"}, {"measurement": "Migration", "setting": "[3]; CTA1000 (1000 mg · L^−1)", "result": "85.0 %, mol"}, {"measurement": "Migration", "setting": "[3]; TBA100 (tetrabutylammonium chloride 100 mg · L^−1)", "result": "76.2 %, mol"}, {"measurement": "Migration", "setting": "[3]; TBA1000 (1000 mg · L^−1)", "result": "73.3 %, mol"}, {"measurement": "Migration", "setting": "[3]; TMA100 (trimethylammonium chloride 100 mg · L^−1)", "result": "83.2 %, mol"}, {"measurement": "Migration", "setting": "[3]; TMA1000 (1000 mg · L^−1)", "result": "83.5 %, mol"}, {"measurement": "Increase in migration to the aqueous phase with CTA", "setting": "[3]; surfactant CTA, 1000 mg·L^−1", "result": "~10", "unit": "%"}, {"measurement": "Effect of TBA on migration to the aqueous phase", "setting": "[3]; surfactant TBA, different concentrations", "result": "no significant effect"}, {"measurement": "Increase in affinity for the hydrophilic phase with TMA", "setting": "[3]; surfactant TMA, from 100 mg·L^−1", "result": "approximately 10%"}, {"measurement": "Migration", "setting": "[4]", "result": "76.7 %, mol"}, {"measurement": "Migration", "setting": "[5]; Absence of ions (no demulsifier), salinity 3.5%", "result": "77.0 %, mol"}, {"measurement": "Migration", "setting": "[5]; D961 50 mg · L^−1", "result": "67.0 %, mol"}, {"measurement": "Migration", "setting": "[5]; D961 100 mg · L^−1", "result": "70.0 %, mol"}, {"measurement": "Migration", "setting": "[5]; D961 1000 mg · L^−1", "result": "75.7 %, mol"}, {"measurement": "Migration", "setting": "[5]; D974 50 mg · L^−1", "result": "66.9 %, mol"}, {"measurement": "Migration", "setting": "[5]; D974 100 mg · L^−1", "result": "74.3 %, mol"}, {"measurement": "Migration", "setting": "[5]; D974 1000 mg · L^−1", "result": "74.8 %, mol"}, {"measurement": "Effect of demulsifiers on partition equilibrium", "setting": "[5]; up to 1000 mg·L^−1, 95% significance", "result": "no observable effect"}, {"measurement": "Migration", "setting": "[6]; 25° C. and 1.0 MPa CO2, no alkalinity", "result": 100, "unit": "% mol"}, {"measurement": "Migration", "setting": "[6]; 80° C. and 1.0 MPa CO2, no alkalinity", "result": 82.4, "unit": "% mol"}, {"measurement": "Migration", "setting": "[6]; Na2CO3 + NaHCO3, 25° C. and 0.1 MPa", "result": 61.3, "unit": "% mol"}, {"measurement": "Migration", "setting": "[6]; Na2CO3 + NaHCO3, 25° C. and 1.0 MPa CO2", "result": 100, "unit": "% mol"}, {"measurement": "Migration", "setting": "[6]; Na2CO3 + NaHCO3, 80° C. and 1.0 MPa CO2", "result": 79.9, "unit": "% mol"}, {"measurement": "Migration", "setting": "[6]; NaHCO3, 25° C. and 0.1 MPa", "result": 69.2, "unit": "% mol"}, {"measurement": "Migration", "setting": "[6]; NaHCO3, 25° C. and 1.0 MPa CO2", "result": 100, "unit": "% mol"}, {"measurement": "Migration", "setting": "[6]; NaHCO3, 80° C. and 1.0 MPa CO2", "result": 96.3, "unit": "% mol"}, {"measurement": "Migration", "setting": "[6]; Reference (heptol + 3.5% NaCl), no alkalinity", "result": 77, "unit": "% mol"}]}]}
